Reference: ChEMBL document CHEMBL5055685, “Discovery of the First Potent IDO1/IDO2 Dual Inhibitors: A Promising Strategy for Cancer Immunotherapy” (J Med Chem, 2021)
Blank lines part the entries; values can stand above or below the compound they belong to. The source made the active and inactive calls. The rule behind the calls is not given here.

Assays:
[1] = target: T1, Indoleamine 2,3-dioxygenase 2 (Homo sapiens) (UniProt Q6ZQW0); assay: Inhibition of IDO2 (unknown origin) assessed as reduction in kynurenine formation using L-tryptophan as substrate by methylene blue reagent based assay relative to control; set-up: concentration or dose not given beside the values; settings: concentration not given here
T1 sequence (whole entry): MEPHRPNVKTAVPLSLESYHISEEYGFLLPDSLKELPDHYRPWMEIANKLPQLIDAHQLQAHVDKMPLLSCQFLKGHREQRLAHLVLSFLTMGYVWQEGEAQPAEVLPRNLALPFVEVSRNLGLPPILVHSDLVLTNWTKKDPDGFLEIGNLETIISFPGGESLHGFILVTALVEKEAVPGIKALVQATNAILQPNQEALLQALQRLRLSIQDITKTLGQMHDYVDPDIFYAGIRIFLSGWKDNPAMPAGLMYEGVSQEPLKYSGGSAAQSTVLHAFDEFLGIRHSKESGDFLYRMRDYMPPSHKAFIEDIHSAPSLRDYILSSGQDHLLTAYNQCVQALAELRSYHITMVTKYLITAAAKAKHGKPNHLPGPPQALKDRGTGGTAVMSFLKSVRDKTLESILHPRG

[2] = target: T2, Indoleamine 2,3-dioxygenase 1 (Homo sapiens, UniProt P14902); assay: Inhibition of IDO1 (unknown origin) assessed as reduction in kynurenine formation using L-tryptophan as substrate by methylene blue reagent based assay relative to control; set-up: concentration or dose not given beside the values; settings: concentration not given here
Target sequence in this assay (P14902 whole entry, looked up): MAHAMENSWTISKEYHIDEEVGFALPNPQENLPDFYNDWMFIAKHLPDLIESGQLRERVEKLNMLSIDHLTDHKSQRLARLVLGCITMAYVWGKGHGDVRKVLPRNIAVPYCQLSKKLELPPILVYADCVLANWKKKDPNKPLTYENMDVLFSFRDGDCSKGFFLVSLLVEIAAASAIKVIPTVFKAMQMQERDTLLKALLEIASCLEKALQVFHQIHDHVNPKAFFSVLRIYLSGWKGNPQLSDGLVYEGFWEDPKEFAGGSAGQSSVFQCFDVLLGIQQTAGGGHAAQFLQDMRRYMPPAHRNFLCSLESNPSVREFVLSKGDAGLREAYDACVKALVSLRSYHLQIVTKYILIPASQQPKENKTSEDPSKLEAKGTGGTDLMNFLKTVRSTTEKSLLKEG

[3] = Tmax in Sprague-Dawley rat at 50 mg/kg, po; type: ADME, organism-based; settings: in vivo
[4] = Protein binding in Sprague-Dawley rat plasma assessed as fraction unbound by equilibrium dialysis; type: ADME, cell-free
[5] = Protein binding in monkey plasma by equilibrium dialysis by equilibrium dialysis; type: ADME, cell-free, Macaca mulatta; settings: rhesus monkey, read-out: PPB (converted)
HCT-116 [6] = assay: Cytotoxicity against human HCT-116 cells assessed as reduction in cell viability by CCK8 assay; type: functional, cell-based
[7] = target: Voltage-gated inwardly rectifying potassium channel KCNH2 (Homo sapiens, UniProt Q12809); assay: Inhibition of human ERG
[8] = AUC (0 to t) in Sprague-Dawley rat at 5 mg/kg, iv; type: ADME, organism-based; set-up: dose 5 mg/kg, route iv; settings: in vivo
[9] = Volume of distribution at steady state in Sprague-Dawley rat at 5 mg/kg, iv; type: ADME, organism-based; settings: in vivo, read-out: Vdss
[10] = target: T2, Indoleamine 2,3-dioxygenase 1; assay: Inhibition of IDO1 (unknown origin) assessed as reduction in kynurenine formation using L-tryptophan as substrate by methylene blue reagent based assay
Target sequence in this assay (P14902 whole entry): as the sequence (P14902 whole entry, looked up) above

CT26 [11] = assay: Antitumor activity against mouse CT26 cells implanted in BALB/c mouse assessed as tumor growth inhibition at 50 mg/kg, ip bid for 28 days by vernier caliper method relative to control; type: functional; settings: CT26, 672 h, time 28 day, read-out: TGI
Mus musculus [12] = assay: Toxicity in BALB/c mouse implanted with mouse CT26 cells assessed as weight loss at 50 mg/kg, ip bid for 28 days; type: organism-based; settings: in vivo, 672 h, time 28 day
[13] = Clearance in rat liver microsomes; type: ADME, Microsome; settings: read-out: CLH
[14] = Metabolic stability in mouse liver microsomes assessed as rate constant; type: ADME, Microsome
[15] = Half life in monkey liver microsomes; type: ADME, Macaca mulatta, Microsome; settings: rhesus monkey
[16] = Half life in Sprague-Dawley rat at 5 mg/kg, iv; type: ADME, organism-based; settings: in vivo
[17] = Metabolic stability in dog liver microsomes assessed as rate constant; type: ADME, Canis lupus familiaris, Microsome
HT-29 = assay: Cytotoxicity against human HT-29 cells assessed as reduction in cell viability by CCK8 assay; type: functional, cell-based
Mus musculus [18] = assay: Toxicity in BALB/c mouse implanted with mouse CT26 cells assessed as adverse effect at 50 mg/kg, ip bid for 28 days; type: organism-based; settings: in vivo, 672 h, time 28 day
[19] = Half life in Sprague-Dawley rat at 50 mg/kg, po; type: ADME, organism-based; settings: in vivo
[20] = Protein binding in Beagle dog plasma by equilibrium dialysis; type: ADME, cell-free, Canis lupus familiaris; settings: read-out: PPB (converted)
[21] = Intrinsic clearance in monkey liver microsomes; type: ADME, Macaca mulatta, Microsome; settings: rhesus monkey, read-out: CLH
[22] = Metabolic stability in human liver microsomes assessed as rate constant; type: ADME, Microsome
[23] = Clearance in dog liver microsomes; type: ADME, Canis lupus familiaris, Microsome; settings: read-out: CLH
[24] = Protein binding in ICR mouse plasma assessed as fraction unbound by equilibrium dialysis; type: ADME, cell-free
[25] = Cmax in Sprague-Dawley rat at 50 mg/kg, po; type: ADME, organism-based; set-up: dose 50 mg/kg, route po; settings: in vivo
[26] = Metabolic stability in monkey liver microsomes assessed as rate constant; type: ADME, Macaca mulatta, Microsome; settings: rhesus monkey
[27] = target: T3, Indoleamine 2,3-dioxygenase 2 (Homo sapiens, UniProt Q6ZQW0); assay: Inhibition of IDO2 (unknown origin) assessed as reduction in kynurenine formation using L-tryptophan as substrate by methylene blue reagent based assay
T3 sequence (Q6ZQW0 whole entry): T1 sequence (whole entry)

HeLa = assay: Cytotoxicity against human HeLa cells assessed as reduction in cell viability at 1 to 10 uM by CCK8 assay; type: functional, cell-based; settings: dose 1-10 µM
[28] = Protein binding in human plasma by equilibrium dialysis; type: ADME, cell-free; settings: read-out: PPB (converted)
[29] = Efflux ratio of apparent permeability across basolateral to apical over apical to basolateral side in human Caco-2 cells; type: ADME, cell-based
[30] = Apparent permeability across basolateral to apical side in human Caco-2 cells assessed as drug recovery; type: ADME, cell-based; settings: read-out: Drug recovery
[31] = Protein binding in monkey plasma assessed as fraction unbound by equilibrium dialysis; type: ADME, cell-free, Macaca mulatta; settings: rhesus monkey
[32] = Half life in dog liver microsomes assessed as rate constant; type: ADME, Canis lupus familiaris, Microsome
PBMC = assay: Inhibition of IDO1/IDO2 in IFNgamma/LPS-stimulated human PBMCs assessed as reduction in kynurenine formation at 0.0001 to 10 uM pretreated with compound for 15 mins followed by IFNgamma/LPS stimulation by LC-MS/MS analysis; type: tissue-based; settings: dose 0.0001-10 µM
[33] = Half life in human liver microsomes; type: ADME, Microsome
[34] = Metabolic stability in rat liver microsomes assessed as rate constant; type: ADME, Microsome
[35] = Half life in mouse liver microsomes; type: ADME, Microsome
[36] = Apparent permeability across apical to basolateral side in human Caco-2 cells assessed as drug recovery; type: ADME, cell-based; settings: read-out: Drug recovery
Rattus norvegicus [37] = assay: Toxicity in rat assessed as weight loss at […]; type: organism-based; settings: in vivo
[38] = AUC (0 to t) in Sprague-Dawley rat at 50 mg/kg, po; type: ADME, organism-based; set-up: dose 50 mg/kg, route po; settings: in vivo
[39] = AUC (0 to infinity) in Sprague-Dawley rat at 5 mg/kg, iv; type: ADME, organism-based; set-up: time infinity, dose 5 mg/kg, route iv; settings: in vivo
[40] = Oral bioavailability in Sprague-Dawley rat at 50 mg/kg; type: ADME, organism-based; settings: in vivo
[41] = Protein binding in ICR mouse plasma by equilibrium dialysis; type: ADME, cell-free; settings: read-out: PPB (converted)
[42] = Protein binding in human plasma assessed as fraction unbound by equilibrium dialysis; type: ADME, cell-free
[43] = AUC (0 to infinity) in Sprague-Dawley rat at 50 mg/kg, po; type: ADME, organism-based; set-up: time infinity, dose 50 mg/kg, route po; settings: in vivo
[44] = Apparent permeability across apical to basolateral side in human Caco-2 cells; type: ADME, cell-based
CT26 [45] = assay: Cytotoxicity against mouse CT26 cells assessed as reduction in cell viability by CCK8 assay; type: functional, cell-based
Rattus norvegicus [46] = assay: Toxicity in rat assessed as rat death at […]; type: organism-based; settings: in vivo
[47] = Toxicity in rat assessed as maximum tolerated dose; type: organism-based; settings: in vivo
[48] = Half life in rat liver microsomes; type: ADME, Microsome
[49] = Protein binding in Beagle dog plasma assessed as fraction unbound by equilibrium dialysis; type: ADME, cell-free, Canis lupus familiaris
[50] = Intrinsic clearance in human liver microsomes; type: ADME, Microsome; settings: read-out: CLH
[51] = Apparent permeability across basolateral to apical side in human Caco-2 cells; type: ADME, cell-based
[52] = Protein binding in Sprague-Dawley rat plasma by equilibrium dialysis; type: ADME, cell-free; settings: read-out: PPB (converted)
[53] = Clearance in mouse liver microsomes; type: ADME, Microsome; settings: read-out: CLH
Mus musculus [54] = assay: In vivo inhibition of TDO in BALB/c mouse xenografted with human HCT-116 cells assessed as suppression of TDO mRNA expression in tumor by quantitative RT-PCR analysis; type: functional, organism-based
Mus musculus [55] = assay: In vivo inhibition of IDO2 in BALB/c mouse xenografted with human HCT-116 cells assessed as suppression of IDO2 mRNA expression in tumor by quantitative RT-PCR analysis; type: functional, organism-based
HCT-116 [56] = assay: Antitumor activity against human HCT-116 cells xenografted in BALB/c nude mouse assessed as tumor growth inhibition at 300 mg/kg, ig bid for 21 days by vernier caliper method; type: functional, organism-based; settings: time 21.0 day
Mus musculus [57] = assay: In vivo inhibition of IDO1/IDO2 in BALB/c mouse xenografted with human HCT-116 cells assessed as downregulation of Foxp3 mRNA expression in tumor by quantitative RT-PCR analysis; type: functional, organism-based
Mus musculus [58] = assay: In vivo inhibition of TDO in BALB/c mouse xenografted with human HCT-116 cells assessed as suppression of TDO expression in tumor by immunohistochemical assay; type: functional, organism-based
Mus musculus [59] = assay: In vivo inhibition of IDO1/IDO2 in BALB/c mouse xenografted with human HCT-116 cells assessed as downregulation of Foxp3 expression in tumor by immunohistochemical assay; type: functional, organism-based
Mus musculus [60] = assay: In vivo inhibition of IDO2 in BALB/c mouse xenografted with human HCT-116 cells assessed as suppression of IDO2 expression in tumor by immunohistochemical assay; type: functional, organism-based

Sequence of Voltage-gated inwardly rectifying potassium channel KCNH2 (Q12809 whole entry): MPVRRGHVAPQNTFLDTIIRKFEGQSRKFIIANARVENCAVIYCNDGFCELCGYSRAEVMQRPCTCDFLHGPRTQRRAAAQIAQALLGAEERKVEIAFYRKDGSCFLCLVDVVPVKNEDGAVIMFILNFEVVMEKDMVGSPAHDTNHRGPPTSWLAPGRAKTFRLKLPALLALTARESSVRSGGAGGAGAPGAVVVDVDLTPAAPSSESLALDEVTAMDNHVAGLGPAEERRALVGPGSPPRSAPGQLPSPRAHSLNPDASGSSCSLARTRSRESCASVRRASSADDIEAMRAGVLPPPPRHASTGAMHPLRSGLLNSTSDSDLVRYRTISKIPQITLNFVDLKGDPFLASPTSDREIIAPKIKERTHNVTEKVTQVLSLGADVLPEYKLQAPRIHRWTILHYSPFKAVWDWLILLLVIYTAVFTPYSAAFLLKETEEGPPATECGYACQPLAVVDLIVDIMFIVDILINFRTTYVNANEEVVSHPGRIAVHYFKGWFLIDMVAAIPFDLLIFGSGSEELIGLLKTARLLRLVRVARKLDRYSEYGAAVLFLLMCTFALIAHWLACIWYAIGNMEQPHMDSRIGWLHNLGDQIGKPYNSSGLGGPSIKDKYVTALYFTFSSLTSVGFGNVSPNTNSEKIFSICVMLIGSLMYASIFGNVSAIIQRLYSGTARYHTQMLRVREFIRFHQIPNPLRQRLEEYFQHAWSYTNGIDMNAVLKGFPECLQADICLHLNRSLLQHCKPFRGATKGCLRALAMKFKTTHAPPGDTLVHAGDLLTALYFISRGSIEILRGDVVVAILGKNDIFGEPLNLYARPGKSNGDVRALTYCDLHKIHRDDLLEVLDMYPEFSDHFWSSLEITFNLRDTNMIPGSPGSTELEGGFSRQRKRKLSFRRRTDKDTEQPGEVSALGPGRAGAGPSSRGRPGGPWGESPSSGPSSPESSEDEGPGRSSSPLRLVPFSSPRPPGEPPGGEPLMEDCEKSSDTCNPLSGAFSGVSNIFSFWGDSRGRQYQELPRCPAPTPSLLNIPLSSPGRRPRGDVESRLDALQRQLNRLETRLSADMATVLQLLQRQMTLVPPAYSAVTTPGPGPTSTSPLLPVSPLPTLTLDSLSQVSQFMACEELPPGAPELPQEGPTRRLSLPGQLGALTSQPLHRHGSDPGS

inhibition [1]: 7%
inhibition [2]: 20.5%
SMILES: COCc1cn(CCNc2nonc2/C(=N/O)Nc2ccc(F)c(Br)c2)nn1

inhibition [1]: 10%
inhibition [2]: 37%
SMILES: O/N=C(\Nc1ccc(F)c(Br)c1)c1nonc1NCCn1cc(C2CC2)nn1

SMILES: CC(O)c1cn(CCNc2nonc2/C(=N/O)Nc2ccc(F)c(Br)c2)nn1 (centres undefined)
Tmax [3]: 25.2 min
fraction unbound [4]: 0.044
fraction unbound [5]: 0.0371
IC50 (HCT-116 [6]): 23.7 µM
IC50 [7]: > 30 µM
AUC(0-t) [8]: 5590 ng·h/mL
Vd [9]: 1.2 L/kg
IC50 [10]: 0.053 µM
inhibition in vivo at 50 mg/kg (CT26 [11]): 66.3%
Activity (Mus musculus [12]): Non-Toxic
microsomal CLint [13]: 64.2 µL/min/mg
K [14]: 0.0168 min⁻¹
half-life [15]: 68.8 min
half-life [16]: 48 min
k el [17]: 0.00218 s⁻¹
IC50 (HT-29): 46 µM
Activity (Mus musculus [18]): Non-Toxic
half-life [19]: 78 min
fraction unbound [20]: 0.0239
microsomal CLint [21]: 20.2 µL/min/mg
k el [22]: 4.35e-05 s⁻¹
microsomal CLint [23]: 261 µL/min/mg
fraction unbound [24]: 0.0584
Cmax [25]: 2730 ng/mL
k el [26]: 0.000168 s⁻¹
IC50 [27]: 0.362 µM
Activity (HeLa): Active
fraction unbound [28]: 0.0192
efflux ratio [29]: 5.9
recovery [30]: 116%
fraction unbound [31]: 0.0371
half-life [32]: 5.31 min
inhibition (PBMC): Active
half-life [33]: 272 min
k el [34]: 0.00218 s⁻¹
half-life [35]: 41.2 min
recovery [36]: 95.5%
Activity (Rattus norvegicus [37]): Non-Toxic
AUC(0-t) [38]: 11300 ng·h/mL
AUC [39]: 5670 ng·h/mL
bioavailability [40]: 20.4%
fraction unbound [41]: 0.0584
fraction unbound [42]: 0.0192
AUC(0-inf) [43]: 11500 ng·h/mL
Papp A→B [44]: 13.8 ×10⁻⁶ cm/s
IC50 (CT26 [45]): 27.5 µM
Activity (Rattus norvegicus [46]): Non-Toxic
MTD [47]: 2 mg/kg
half-life [48]: 21.6 min
fraction unbound [49]: 0.0239
microsomal CLint [50]: 5.22 µL/min/mg
Papp B→A [51]: 80.9 ×10⁻⁶ cm/s
fraction unbound [52]: 0.04
microsomal CLint [53]: 33.6 µL/min/mg

SMILES: NS(=O)(=O)NCCNc1nonc1/C(=N/O)Nc1ccc(F)c(Br)c1 [EPACADOSTAT]
IC50 (HCT-116 [6]): 37.1 µM
inhibition (Mus musculus [54]): inactive
inhibition in vivo at 50 mg/kg (CT26 [11]): 49.4%
inhibition (Mus musculus [55]): inactive
IC50 (HT-29): 63 µM
Activity (HCT-116 [56]): inactive
inhibition (Mus musculus [57]): inactive
inhibition (Mus musculus [58]): inactive
inhibition (Mus musculus [59]): inactive
inhibition (Mus musculus [60]): inactive
IC50 (CT26 [45]): 47.1 µM
